In PubChem BioAssay AID248 (DTP/NCI, 2004):
Where “and” joins values, the source holds several entries; their conditions need not be identical. Identical values can stand only once. Toxic doses and inconclusive results are not listed. Rule as the data show it: active = T/C of 150% or more; inactive = T/C below 125%.

Test system: L1210 leukemia ip in BDF1 mice, survival T/C
Assay: NCI In Vivo Anticancer Drug Screen. Data for tumor model L1210 Leukemia (intraperitoneal) in B6D2F1 (BDF1) mice
Details: endpoint: mean survival time, higher = longer survival
Summary of the method: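 Mice bearing the transplanted tumor received compound or vehicle. Survival of the treated group was divided by that of the vehicle-treated control group to give the ratio.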

[1] = dose: 50.0 mg/kg/injection, schedule: Q01DX001 (ip), vehicle: saline
[2] = dose: 100.0 mg/kg/injection, schedule: Q01DX001 (ip), vehicle: saline
[3] = dose: 200.0 mg/kg/injection, schedule: Q01DX001 (ip), vehicle: saline
[4] = dose: 400.0 mg/kg/injection, schedule: Q01DX001 (ip), vehicle: saline
[5] = dose: 100.0 mg/kg/injection, schedule: Q04DX003 (ip), vehicle: Klucel (hydroxypropylcellulose) (HPC)
[6] = dose: 100.0 mg/kg/injection, schedule: Q04DX002 (ip), vehicle: saline
[7] = dose: 200.0 mg/kg/injection, schedule: Q04DX002 (ip), vehicle: saline
[8] = dose: 400.0 mg/kg/injection, schedule: Q04DX002 (ip), vehicle: saline
[9] = dose: 50.0 mg/kg/injection, schedule: Q01DX009 (ip), vehicle: saline with Tween-80
[10] = dose: 100.0 mg/kg/injection, schedule: Q01DX009 (ip), vehicle: saline with Tween-80
[11] = dose: 200.0 mg/kg/injection, schedule: Q01DX009 (ip), vehicle: saline with Tween-80
[12] = dose: 100.0 mg/kg/injection, schedule: Q04DX002 (ip), vehicle: Klucel (hydroxypropylcellulose) (HPC)
[13] = dose: 200.0 mg/kg/injection, schedule: Q04DX002 (ip), vehicle: Klucel (hydroxypropylcellulose) (HPC)
[14] = dose: 400.0 mg/kg/injection, schedule: Q04DX002 (ip), vehicle: Klucel (hydroxypropylcellulose) (HPC)
[15] = dose: 100.0 mg/kg/injection, schedule: Q01DX001 (ip), vehicle: Klucel (hydroxypropylcellulose) (HPC)
[16] = dose: 200.0 mg/kg/injection, schedule: Q01DX001 (ip), vehicle: Klucel (hydroxypropylcellulose) (HPC)
[17] = dose: 50.0 mg/kg/injection, schedule: Q04DX003 (ip), vehicle: saline
[18] = dose: 100.0 mg/kg/injection, schedule: Q04DX003 (ip), vehicle: saline
[19] = dose: 200.0 mg/kg/injection, schedule: Q04DX003 (ip), vehicle: saline
[20] = dose: 100.0 mg/kg/injection, schedule: Q04DX003 (ip), vehicle: saline with Tween-80
[21] = dose: 200.0 mg/kg/injection, schedule: Q04DX003 (ip), vehicle: saline with Tween-80

Measured: T/C

C[n+]1c(-c2cc(Cl)cc(Cl)c2)c2cc([N+](=O)[O-])ccc2c2ccccc21
inactive: dose: 50.0 mg/kg/injection, schedule: Q01DX009 (ip), vehicle: water 109 % of control | dose: 100.0 mg/kg/injection, schedule: Q01DX009 (ip), vehicle: water 96 % of control | dose: 100.0 mg/kg/injection, schedule: Q04DX003 (ip), vehicle: water 92 % of control | dose: 200.0 mg/kg/injection, schedule: Q01DX009 (ip), vehicle: water 98 % of control | dose: 200.0 mg/kg/injection, schedule: Q04DX003 (ip), vehicle: water 96 % of control | dose: 400.0 mg/kg/injection, schedule: Q04DX003 (ip), vehicle: water 93 % of control

COc1ccc(C2(CO)OC(CO)C(O)C2O)cc1 (stereo not drawn)
inactive: [1] 105 % of control | [2] 103 % of control | [3] 97 % of control | [4] 94 % of control

O=C1c2ccccc2C(=O)c2c(O)cccc21
inactive: [5] 101 % of control | dose: 200.0 mg/kg/injection, schedule: Q04DX003 (ip), vehicle: Klucel (hydroxypropylcellulose) (HPC) 89 % of control | dose: 400.0 mg/kg/injection, schedule: Q04DX003 (ip), vehicle: Klucel (hydroxypropylcellulose) (HPC) 105 % of control

Cc1nc(N)[nH]c(=O)c1CCCOc1ccccc1
inactive: dose: 50.0 mg/kg/injection, schedule: Q01DX Z (ip), vehicle: carboxymethylcellulose (CMC) 95 % of control | dose: 100.0 mg/kg/injection, schedule: Q01DX Z (ip), vehicle: carboxymethylcellulose (CMC) 93 % of control | dose: 200.0 mg/kg/injection, schedule: Q01DX Z (ip), vehicle: carboxymethylcellulose (CMC) 93 % of control | dose: 400.0 mg/kg/injection, schedule: Q01DX Z (ip), vehicle: carboxymethylcellulose (CMC) 93 % of control

CC1=Nc2c(c(C(C)(C)C)c3nc(C)oc3c2C(C)(C)C)C1
inactive: dose: 100.0 mg/kg/injection, schedule: Q01DX001 (ip), vehicle: saline with Tween-80 97 % of control | dose: 200.0 mg/kg/injection, schedule: Q01DX001 (ip), vehicle: saline with Tween-80 94 % of control | dose: 400.0 mg/kg/injection, schedule: Q01DX001 (ip), vehicle: saline with Tween-80 94 % of control

C=CCOCC(O)COP(=O)(O)O (stereo not drawn) (tested in a mixture with another compound)
inactive: [1] 111 % of control and 107 % of control and 97 % of control | [2] 100 % of control and 107 % of control and 103 % of control | [3] 100 % of control and 97 % of control and 103 % of control | [4] 94 % of control and 103 % of control

N=C(N)c1ccc(-c2cc(-c3ccc(C(=N)N)cc3)on2)cc1
inactive: dose: 6.25 mg/kg/injection, schedule: Q04DX003 (ip), vehicle: saline 100 % of control | dose: 12.5 mg/kg/injection, schedule: Q04DX003 (ip), vehicle: saline 103 % of control | dose: 25.0 mg/kg/injection, schedule: Q04DX003 (ip), vehicle: saline 108 % of control

C1CNC(C2=NCCN2)=N1
inactive: [6] 100 % of control | [7] 100 % of control | [8] 90 % of control

COc1ccc(C)cc1NC(=O)OCCOc1ccc(Cl)c(C)c1
inactive: [9] 93 % of control | [10] 90 % of control | [11] 93 % of control

CCOC(=O)NCC(CCN1CCCCC1)(CCN1CCCCC1)c1cccc2ccccc12
inactive: [5] 107 % of control

CC1CCCCN1Cc1ccccc1COC(=O)c1ccc([N+](=O)[O-])cc1 (stereo not drawn)
inactive: [12] 90 % of control | [13] 104 % of control | [14] 114 % of control

Cc1ccc(C)c(NC(=O)Nc2cccc(O)c2)c1
inactive: dose: 100.0 mg/kg/injection, schedule: Q01DX009 (ip), vehicle: Klucel (hydroxypropylcellulose) (HPC) 102 % of control | [12] 109 % of control | dose: 200.0 mg/kg/injection, schedule: Q01DX009 (ip), vehicle: Klucel (hydroxypropylcellulose) (HPC) 103 % of control | [13] 102 % of control | dose: 400.0 mg/kg/injection, schedule: Q01DX009 (ip), vehicle: Klucel (hydroxypropylcellulose) (HPC) 94 % of control | [14] 109 % of control

OC1CCOC1 (stereo not drawn)
inactive: [10] 98 % of control | [11] 97 % of control | dose: 400.0 mg/kg/injection, schedule: Q01DX009 (ip), vehicle: saline with Tween-80 98 % of control

CC1(C)Cc2cccc(C(=O)CCCN3CCC4(CC3)C(=O)NCN4c3ccccc3)c2O1
inactive: dose: 50.0 mg/kg/injection, schedule: Q01DX001 (ip), vehicle: Klucel (hydroxypropylcellulose) (HPC) 100 % of control | [15] 102 % of control | [16] 93 % of control

COCCCN=C(N)N
inactive: [17] 98 % of control | [18] 104 % of control | [19] 104 % of control

O=C(c1ccc([N+](=O)[O-])cc1)c1ccn[nH]1
inactive: [15] 103 % of control | [16] 99 % of control | dose: 400.0 mg/kg/injection, schedule: Q01DX001 (ip), vehicle: Klucel (hydroxypropylcellulose) (HPC) 94 % of control

Cc1cc2c(cc1C)C(O)C(N1CCN(C)CC1)CCC2 (stereo not drawn)
inactive: dose: 50.0 mg/kg/injection, schedule: Q04DX003 (ip), vehicle: saline with Tween-80 103 % of control | [20] 97 % of control | [21] 92 % of control

COC(=O)c1cc(C(C)=O)nc2ccccc12
inactive: [20] 94 % of control | [21] 99 % of control | dose: 400.0 mg/kg/injection, schedule: Q04DX003 (ip), vehicle: saline with Tween-80 90 % of control

CN(C)c1ccc(/C=N\NC(=O)c2ccco2)cc1
inactive: dose: 200.0 mg/kg/injection, schedule: Q01DX001 (ip), vehicle: other 93 % of control | dose: 400.0 mg/kg/injection, schedule: Q01DX001 (ip), vehicle: other 90 % of control

O=C1c2ccccc2C(=O)c2[nH]ncc21
inactive: dose: 100.0 mg/kg/injection, schedule: Q04DX002 (ip), vehicle: saline with Tween-80 102 % of control | dose: 200.0 mg/kg/injection, schedule: Q04DX002 (ip), vehicle: saline with Tween-80 95 % of control | dose: 400.0 mg/kg/injection, schedule: Q04DX002 (ip), vehicle: saline with Tween-80 91 % of control

CN1CCN(c2nc3nnnn3c3ccccc23)CC1
inactive: [17] 101 % of control | [18] 104 % of control | [19] 101 % of control

CCC(C)(CO)N=Cc1ccccc1O.CCC(C)(O)/N=C/c1ccccc1O.[Cu].[Cu] (stereo not drawn)
inactive: dose: 9.5 mg/kg/injection, schedule: Q01DX001 (ip), vehicle: other 100 % of control | dose: 19.0 mg/kg/injection, schedule: Q01DX001 (ip), vehicle: other 97 % of control | dose: 38.0 mg/kg/injection, schedule: Q01DX001 (ip), vehicle: other 86 % of control

O=Cc1ccc(OC(=O)Nc2ccccc2F)cc1
inactive: [2] 96 % of control | dose: 100.0 mg/kg/injection, schedule: Q01DX009 (ip), vehicle: saline 98 % of control and 101 % of control | [6] 103 % of control and 107 % of control | [3] 99 % of control | dose: 200.0 mg/kg/injection, schedule: Q01DX009 (ip), vehicle: saline 106 % of control and 112 % of control | [7] 100 % of control and 104 % of control | [4] 92 % of control | dose: 400.0 mg/kg/injection, schedule: Q01DX009 (ip), vehicle: saline 96 % of control | [8] 93 % of control and 109 % of control

[C-]1=CC2C=CC1C1[C-]=CC21.[Cl][Pd][Cl] (stereo not drawn)
inactive: dose: 3.13 mg/kg/injection, schedule: Q01DX009 (ip), vehicle: saline with Tween-80 103 % of control | dose: 6.25 mg/kg/injection, schedule: Q01DX009 (ip), vehicle: saline with Tween-80 98 % of control | dose: 12.5 mg/kg/injection, schedule: Q01DX009 (ip), vehicle: saline with Tween-80 100 % of control

C=CCSc1nc(N)nc2nc[nH]c12
inactive: [9] 122 % of control | [10] 123 % of control | [11] 124 % of control

CC(C)(SC(c1ccccc1)(c1ccccc1)c1ccccc1)C(N)C(=O)O (stereo not drawn)
inactive: dose: 6.25 mg/kg/injection, schedule: Q01DX009 (ip), vehicle: saline 103 % of control | dose: 12.5 mg/kg/injection, schedule: Q01DX009 (ip), vehicle: saline 102 % of control | dose: 25.0 mg/kg/injection, schedule: Q01DX009 (ip), vehicle: saline 108 % of control

CCCCCOP(=O)(OCCCCC)C(c1ccccc1)c1ccccc1
inactive: [6] 100 % of control | [7] 100 % of control | [8] 96 % of control
